Results published in ChEMBL document CHEMBL4400559, “Exploiting the furo[2,3-b]pyridine core against multidrug-resistant Mycobacterium tuberculosis” (Bioorg Med Chem Lett, 2019).
≈ marks a conversion by molar mass, not a printed value.

Tests used:
Format in all cases: functional
[1] = test system: Mycobacterium tuberculosis; assay: Antibacterial activity against drug-resistant Mycobacterium tuberculosis isolate 1 after 7 days by resazurin microtiter assay; conditions: isolate 1, 168 h
[2] = test system: Mycobacterium tuberculosis; assay: Antibacterial activity against drug-resistant Mycobacterium tuberculosis isolate 3 after 7 days by resazurin microtiter assay; conditions: isolate 3, 168 h
[3] = test system: Mycobacterium tuberculosis; assay: Antibacterial activity against drug-resistant Mycobacterium tuberculosis isolate 2 after 7 days by resazurin microtiter assay; conditions: isolate 2, 168 h
[4] = test system: Mycobacterium tuberculosis; assay: Antibacterial activity against drug-resistant Mycobacterium tuberculosis isolate 5 after 7 days by resazurin microtiter assay; conditions: isolate 5, 168 h
[5] = test system: Mycobacterium tuberculosis; assay: Antibacterial activity against drug-resistant Mycobacterium tuberculosis isolate 4 after 7 days by resazurin microtiter assay; conditions: isolate 4, 168 h

| SMILES | MIC [1] | MIC [2] | MIC [3] | MIC [4] | MIC [5] |
| --- | --- | --- | --- | --- | --- |
| NCC[C@H](O)C(=O)N[C@@H]1C[C@H](N)[C@@H](O[C@H]2O[C@H](CN)[C@@H](O)[C@H](O)[C@H]2O)[C@H](O)[C@H]1O[C@H]1O[C@H](CO)[C@@H](O)[C@H](N)[C@H]1O [AMIKACIN] | 0.4 µM (≈ 0.234 µg/mL) | 0.4 µM (≈ 0.234 µg/mL) | 1.6 µM (≈ 0.937 µg/mL) | 1.7 µM (≈ 0.996 µg/mL) | 0.7 µM (≈ 0.41 µg/mL) |
| NNC(=O)c1ccncc1 [ISONIAZID] | > 182 µM | > 182 µM | > 182 µM | > 182 µM | > 182 µM |
| CCOC(=O)c1c(C)oc2nc(N3CCCC3)ccc12 | 18.1 µM (≈ 4.97 µg/mL) | 9.3 µM (≈ 2.55 µg/mL) | 20.2 µM (≈ 5.54 µg/mL) | 16.6 µM (≈ 4.55 µg/mL) | 15.8 µM (≈ 4.33 µg/mL) |
| CC[C@@H](CO)NCCN[C@@H](CC)CO [ETHAMBUTOL] | > 122 µM | > 122 µM | > 122 µM | > 122 µM | > 122 µM |
| CCCCNc1ccc2c(C(=O)OCC)c(C(C)C)oc2n1 | > 82.2 µM | > 82.2 µM | > 82.2 µM | > 82.2 µM | > 82.2 µM |
| N[C@@H]1CONC1=O [CYCLOSERINE] | 242 µM (≈ 24.7 µg/mL) | > 245 µM | 121 µM (≈ 12.3 µg/mL) | 196 µM (≈ 20.1 µg/mL) | 167 µM (≈ 17 µg/mL) |
| COc1c(N2C[C@@H]3CCCN[C@@H]3C2)c(F)cc2c(=O)c(C(=O)O)cn(C3CC3)c12 [MOXIFLOXACIN] | 0.3 µM (≈ 0.12 µg/mL) | 0.5 µM (≈ 0.201 µg/mL) | 0.7 µM (≈ 0.281 µg/mL) | 0.4 µM (≈ 0.161 µg/mL) | 1.4 µM (≈ 0.562 µg/mL) |
| CO[C@H]1/C=C/O[C@@]2(C)Oc3c(C)c(O)c4c(O)c(c(/C=N/N5CCN(C)CC5)c(O)c4c3C2=O)NC(=O)/C(C)=C\C=C\[C@H](C)[C@H](O)[C@@H](C)[C@@H](O)[C@@H](C)[C@H](OC(C)=O)[C@@H]1C [RIFAMPIN] |  | > 30.4 µM | > 30.4 µM | > 30.4 µM | > 30.4 µM |
